Test results taken from patent publication US9580437B2, “Triazolopyrimidine compounds and uses thereof” (Novartis AG, priority 2014, dated 2017).

Experiments:
EED (1-441)-His protein = EED (1-441)-His protein (Homo sapiens (Human), UniProt O75530); assay: EED-H3K27Me3 peptide competition binding assay by AlphaScreen; settings: read-out: (a) IC50 EED Alphascreen binding Qualified
Text: EED-H3K27Me3 peptide competition binding assay by AlphaScreen (α-screen)

[1] = target: wild type PRC2 (wtPRC2) complex (Homo sapiens (Human), UniProt O75530); assay: EED LC-MS assay; format: biochemical; settings: read-out: (b) IC50 EED LC-MS Qualified
Experimental: A 6 μL solution of 3 μM of the peptide substrate H3K27Me0 (histone H3[21-44]-biotin) in reaction buffer was added to initiate each reaction. […] ELISA (H3K27 Methylation) Assay

Sequence of EED (1-441)-His protein (O75530 whole entry): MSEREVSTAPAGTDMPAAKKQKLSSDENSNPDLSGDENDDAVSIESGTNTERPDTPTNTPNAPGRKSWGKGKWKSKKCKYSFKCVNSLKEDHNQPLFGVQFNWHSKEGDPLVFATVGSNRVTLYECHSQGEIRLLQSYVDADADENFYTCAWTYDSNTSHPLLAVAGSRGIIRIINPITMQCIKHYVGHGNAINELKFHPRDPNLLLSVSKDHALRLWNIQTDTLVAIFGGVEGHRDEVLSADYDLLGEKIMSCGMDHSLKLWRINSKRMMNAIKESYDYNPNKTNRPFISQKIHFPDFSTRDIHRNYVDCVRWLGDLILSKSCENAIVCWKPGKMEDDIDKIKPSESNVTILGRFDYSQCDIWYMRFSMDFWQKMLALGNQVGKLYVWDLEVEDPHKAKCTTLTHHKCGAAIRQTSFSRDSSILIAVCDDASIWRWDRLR
Sequence of wild type PRC2 (wtPRC2) complex (O75530 whole entry): as above
Sequence of wild type PRC2 (wtPRC2) complex (Q15910 whole entry partner): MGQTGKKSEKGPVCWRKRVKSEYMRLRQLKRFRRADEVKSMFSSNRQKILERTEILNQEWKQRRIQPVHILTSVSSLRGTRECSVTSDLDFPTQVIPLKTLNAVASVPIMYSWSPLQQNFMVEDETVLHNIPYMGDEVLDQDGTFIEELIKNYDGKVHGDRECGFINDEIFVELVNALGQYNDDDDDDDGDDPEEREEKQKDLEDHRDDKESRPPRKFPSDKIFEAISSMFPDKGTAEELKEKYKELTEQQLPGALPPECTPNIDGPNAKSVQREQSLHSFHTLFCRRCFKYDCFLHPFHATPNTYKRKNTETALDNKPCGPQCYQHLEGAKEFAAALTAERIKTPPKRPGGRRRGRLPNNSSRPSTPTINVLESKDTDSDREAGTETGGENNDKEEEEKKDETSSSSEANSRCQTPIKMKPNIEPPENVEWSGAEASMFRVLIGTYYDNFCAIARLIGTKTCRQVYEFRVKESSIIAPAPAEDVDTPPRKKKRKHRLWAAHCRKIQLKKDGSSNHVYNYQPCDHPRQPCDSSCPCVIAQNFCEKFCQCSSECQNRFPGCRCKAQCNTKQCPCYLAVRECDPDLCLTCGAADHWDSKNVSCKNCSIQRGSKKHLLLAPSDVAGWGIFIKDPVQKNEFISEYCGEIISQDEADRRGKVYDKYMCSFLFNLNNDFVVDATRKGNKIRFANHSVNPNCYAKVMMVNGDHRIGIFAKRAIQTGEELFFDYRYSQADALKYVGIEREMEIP
Sequence of wild type PRC2 (wtPRC2) complex (Q15022 whole entry partner): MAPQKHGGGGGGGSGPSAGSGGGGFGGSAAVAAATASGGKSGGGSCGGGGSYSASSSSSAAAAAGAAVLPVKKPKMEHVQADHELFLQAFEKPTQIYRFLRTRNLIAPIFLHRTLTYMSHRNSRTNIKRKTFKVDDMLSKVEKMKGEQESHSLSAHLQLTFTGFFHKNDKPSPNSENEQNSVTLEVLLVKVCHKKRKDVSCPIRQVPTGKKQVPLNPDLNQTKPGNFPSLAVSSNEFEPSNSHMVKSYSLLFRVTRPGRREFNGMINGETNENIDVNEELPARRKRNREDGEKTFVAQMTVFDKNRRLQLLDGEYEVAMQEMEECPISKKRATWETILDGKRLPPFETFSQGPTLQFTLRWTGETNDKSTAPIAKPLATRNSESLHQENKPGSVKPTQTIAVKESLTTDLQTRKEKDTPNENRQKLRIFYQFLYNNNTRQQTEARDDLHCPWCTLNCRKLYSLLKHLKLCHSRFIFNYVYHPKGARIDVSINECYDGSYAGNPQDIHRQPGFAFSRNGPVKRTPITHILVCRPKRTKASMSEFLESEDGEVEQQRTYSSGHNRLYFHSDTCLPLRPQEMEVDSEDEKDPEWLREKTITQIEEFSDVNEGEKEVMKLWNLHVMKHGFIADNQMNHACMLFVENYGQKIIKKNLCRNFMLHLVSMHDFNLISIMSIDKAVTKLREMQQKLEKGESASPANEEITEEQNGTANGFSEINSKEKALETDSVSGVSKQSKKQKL

IC50 (EED (1-441)-His protein) [nM] | IC50 [1] [nM] | Compound
9.1 | 9.5 | Fc1ccc2c(c1CNc1ncc(-c3cncnc3)c3nncn13)CCO2 [Example 206, N-((5-fluoro-2,3-dihydrobenzofuran-4-yl)methyl)-8-(pyrimidin-5-yl)-[1,2,4]triazolo[4,3-c]pyrimidin-5-amine]
6.2 | 12.7 | CN(C)Cc1ccc(-c2cnc(NCc3cccc4occc34)n3cnnc23)cc1 [Example 208, N-(benzofuran-4-ylmethyl)-8-(4-((dimethylamino)methyl)phenyl)-[1,2,4]triazolo[4,3-c]pyrimidin-5-amine]
36.9 | 29 | CN1CCN(c2ccc(-c3cnc(NCc4cccc5occc45)n4cnnc34)cc2)CC1 [Example 209, N-(benzofuran-4-ylmethyl)-8-(4-(4-methylpiperazin-1-yl)phenyl)-[1,2,4]triazolo[4,3-c]pyrimidin-5-amine]
18.5 | 21.4 | CC(c1ccc(-c2cnc(NCc3cccc4occc34)n3cnnc23)cc1)N1CCCC1 (stereo not shown) [Example 210, N-(benzofuran-4-ylmethyl)-8-(4-(1-(pyrrolidin-1-yl)ethyl)phenyl)-[1,2,4]triazolo[4,3-c]pyrimidin-5-amine]
32.2 | 28.8 | CN1CCN(c2ccc(-c3cnc(NCc4cccc5occc45)n4cnnc34)cn2)CC1 [Example 211, N-(benzofuran-4-ylmethyl)-8-(6-(4-methylpiperazin-1-yl)pyridin-3-yl)-[1,2,4]triazolo[4,3-c]pyrimidin-5-amine]
31.2 | 33.8 | CN1CCN(c2cc(-c3cnc(NCc4cccc5occc45)n4cnnc34)ccn2)CC1 [Example 212, N-(benzofuran-4-ylmethyl)-8-(2-(4-methylpiperazin-1-yl)pyridin-4-yl)-[1,2,4]triazolo[4,3-c]pyrimidin-5-amine]
36.6 | 25.6 | c1cncc(-c2cnc(NCc3cccc4occc34)n3cnnc23)c1 [Example 213, N-(benzofuran-4-ylmethyl)-8-(pyridin-3-yl)-[1,2,4]triazolo[4,3-c]pyrimidin-5-amine]
37.4 | 22.5 | CS(=O)(=O)c1ccc(-c2cnc(NCc3cccc4occc34)n3cnnc23)cc1 [Example 214, N-(benzofuran-4-ylmethyl)-8-(4-(methylsulfonyl)phenyl)-[1,2,4]triazolo[4,3-c]pyrimidin-5-amine]
20.3 | 21.2 | CC(C)S(=O)(=O)c1ccc(-c2cnc(NCc3cccc4occc34)n3cnnc23)cc1 [Example 215, N-(benzofuran-4-ylmethyl)-8-(4-(isopropylsulfonyl)phenyl)-[1,2,4]triazolo[4,3-c]pyrimidin-5-amine]
132 | 183 | O=C(c1ccc(-c2cnc(NCc3cccc4occc34)n3cnnc23)cc1)N1CCCC1 [Example 216, (4-(5-((benzofuran-4-ylmethyl)amino)-[1,2,4]triazolo[4,3-c]pyrimidin-8-yl)phenyl)(pyrrolidin-1-yl)methanone]
363 | 111 | c1ccc(-c2cnc(NCc3cccc4occc34)n3cnnc23)cc1 [Example 217, N-(benzofuran-4-ylmethyl)-8-phenyl-[1,2,4]triazolo[4,3-c]pyrimidin-5-amine]
38.6 | 26.3 | c1cc(CNc2ncc(-c3ccncc3)c3nncn23)c2ccoc2c1 [Example 218, N-(benzofuran-4-ylmethyl)-8-(pyridin-4-yl)-[1,2,4]triazolo[4,3-c]pyrimidin-5-amine]
6.5 | 6.8 | CN(C)Cc1ccc(-c2cnc(NCc3c(F)ccc4occc34)n3cnnc23)cc1 [Example 219, 8-(4-((dimethylamino)methyl)phenyl)-N-((5-fluorobenzofuran-4-yl)methyl)-[1,2,4]triazolo[4,3-c]pyrimidin-5-amine]
14.1 | 21.6 | CN1CCC(S(=O)(=O)c2ccc(-c3cnc(NCc4cccc5occc45)n4cnnc34)cc2)CC1 [Example 220, N-(benzofuran-4-ylmethyl)-8-(4-((1-methylpiperidin-4-yl)sulfonyl)phenyl)-[1,2,4]triazolo[4,3-c]pyrimidin-5-amine]
11.7 | 14 | Cc1cc(C)c(-c2cnc(NCc3c(F)ccc4c3CCO4)n3cnnc23)cn1 [Example 222, 8-(4,6-dimethylpyridin-3-yl)-N-((5-fluoro-2,3-dihydrobenzofuran-4-yl)methyl)-[1,2,4]triazolo[4,3-c]pyrimidin-5-amine]
8.4 | 18.4 | Cc1nc(CN(C)C)ccc1-c1cnc(NCc2c(F)ccc3c2CCO3)n2cnnc12 [Example 223, 8-(6-((dimethylamino)methyl)-2-methylpyridin-3-yl)-N-((5-fluoro-2,3-dihydrobenzofuran-4-yl)methyl)-[1,2,4]triazolo[4,3-c]pyrimidin-5-amine]
1.5 | 1.9 | CCc1cc(C)c(-c2cnc(NCc3c(F)ccc4c3CCO4)n3cnnc23)cn1 [Example 224, 8-(6-ethyl-4-methylpyridin-3-yl)-N-((5-fluoro-2,3-dihydrobenzofuran-4-yl)methyl)-[1,2,4]triazolo[4,3-c]pyrimidin-5-amine]
7.5 | 10.6 | Cc1nc(OC2CC2)ncc1-c1cnc(NCc2c(F)ccc3c2CCO3)n2cnnc12 [Example 225, 8-(2-cyclopropoxy-4-methylpyrimidin-5-yl)-N-((5-fluoro-2,3-dihydrobenzofuran-4-yl)methyl)-[1,2,4]triazolo[4,3-c]pyrimidin-5-amine]
3.9 | 5 | CCOc1ncc(-c2cnc(NCc3c(F)ccc4c3CCO4)n3cnnc23)c(C)n1 [Example 226, 8-(2-ethoxy-4-methylpyrimidin-5-yl)-N-((5-fluoro-2,3-dihydrobenzofuran-4-yl)methyl)-[1,2,4]triazolo[4,3-c]pyrimidin-5-amine]
6.1 | 7.5 | Cn1ncc(-c2cnc(NCc3c(F)ccc4c3CCO4)n3cnnc23)c1CO [Example 227, (4-(5-(((5-fluoro-2,3-dihydrobenzofuran-4-yl)methyl)amino)-[1,2,4]triazolo[4,3-c]pyrimidin-8-yl)-1-methyl-1H-pyrazol-5-yl)methanol]
8.2 | 9 | Cc1cnc(Cl)cc1-c1cnc(NCc2c(F)ccc3c2CCO3)n2cnnc12 [Example 228, 8-(2-chloro-5-methylpyridin-4-yl)-N-((5-fluoro-2,3-dihydrobenzofuran-4-yl)methyl)-[1,2,4]triazolo[4,3-c]pyrimidin-5-amine]
5.9 | 6.7 | CCc1ccc(-c2cnc(NCc3c(F)ccc4c3CCO4)n3cnnc23)c(C)n1 [Example 229, 8-(6-ethyl-2-methylpyridin-3-yl)-N-((5-fluoro-2,3-dihydrobenzofuran-4-yl)methyl)-[1,2,4]triazolo[4,3-c]pyrimidin-5-amine]
12.9 | 24.5 | COc1nccc(-c2cnc(NCc3c(F)ccc4c3CCO4)n3cnnc23)c1C [Example 230, N-((5-fluoro-2,3-dihydrobenzofuran-4-yl)methyl)-8-(2-methoxy-3-methylpyridin-4-yl)-[1,2,4]triazolo[4,3-c]pyrimidin-5-amine]
